The text below walks through data of article PMC8279013 (Toxicology letters, 2020).

The target in the experiment is T1, pregnane X receptor (PXR) (Homo sapiens, UniProt O75469).
T1 sequence (O75469 1-434): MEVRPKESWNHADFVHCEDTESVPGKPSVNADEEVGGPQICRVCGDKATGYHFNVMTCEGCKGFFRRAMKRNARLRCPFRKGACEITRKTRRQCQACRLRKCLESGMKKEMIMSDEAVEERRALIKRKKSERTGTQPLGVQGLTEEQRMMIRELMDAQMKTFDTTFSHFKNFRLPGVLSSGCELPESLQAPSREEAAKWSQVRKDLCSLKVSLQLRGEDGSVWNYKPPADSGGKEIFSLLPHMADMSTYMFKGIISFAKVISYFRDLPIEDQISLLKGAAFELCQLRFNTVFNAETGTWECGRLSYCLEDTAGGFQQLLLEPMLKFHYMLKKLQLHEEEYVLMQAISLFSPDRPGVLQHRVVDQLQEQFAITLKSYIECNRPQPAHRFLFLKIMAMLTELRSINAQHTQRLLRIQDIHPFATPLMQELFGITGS
The experiment can be described thus: PXR element luciferase reporter, RIF-stimulated, stable hPXR-HRE cells. Format: cell-based. (In general: Reporter assays use an easily measured gene product as a stand-in for the process of interest.)

As usually defined, the IC50 is the concentration needed to halve the response being measured. High values mean a need for much substance, low ones inhibition by little substance.

As to `CC(=O)N1CCN(c2ccc(OC[C@H]3CO[C@](Cn4ccnc4)(c4ccc(Cl)cc4Cl)O3)cc2)CC1` (racemic) [ketoconazole], 22.4 µM corresponded to half-maximal inhibition (IC50).
